{"source": "patent US20220047656A1", "about": "“SACCHAROMYCES CEREVISIAE YEAST STRAIN FOR THE TREATMENT AND/OR PREVENTION OF OROPHARYNGEAL CANDIDIASIS” (LESAFFRE ET COMPAGNIE, priority 2018, published 2022)", "type_in_all_cases": "in vivo, C57BL/6 mice", "key": {"IL-6": {"tested_on": "IL-6", "assay": "ELISA of IL-6 in supernatants of tongue homogenates"}, "TNF-α": {"tested_on": "TNF-α", "assay": "ELISA of TNF-α in supernatants of tongue homogenates", "conditions": "vs infected mice treated with saline solution"}, "IL-1β": {"tested_on": "IL-1β", "assay": "ELISA of IL-1β in supernatants of tongue homogenates", "conditions": "vs infected mice treated with saline solution"}}}
{"compound": "OC(Cn1cncn1)(Cn1cncn1)c1ccc(F)cc1F", "note": "[FLZ, fluconazole]", "values": [{"measurement": "production of IL-6", "setting": "IL-6; 3 days after infection, otherwise unchanged compared to the untreated mice", "value": "exception"}, {"measurement": "production of IL-6", "setting": "IL-6; 6 days post-infection, vs infected mice treated with saline solution", "value": "significant decrease"}, {"measurement": "production of TNF-α", "setting": "TNF-α; 3 days after infection", "value": "considerable inhibition"}, {"measurement": "production of TNF-α", "setting": "TNF-α; 6 days post-infection", "value": "significant decrease"}, {"measurement": "production of IL-1β", "setting": "IL-1β; 3 days after infection", "value": "considerable inhibition"}, {"measurement": "production of IL-1β", "setting": "IL-1β; 6 days post-infection", "value": "significant decrease"}]}
